We go through four compounds from US4563465A, “Treatment of migraine with substituted tropyl benzoate derivatives” (Merrell Dow Pharmaceuticals Inc., priority 1981, dated 1986).

Usually ED50 stands for the dose at which the effect has come halfway, by size or by number of responders.

Like-named read-outs stand apart in the source and are kept apart here.

For series [1], the system named is 5-HT (Von Bezold-Jarisch reflex). In words: Von Bezold-Jarisch reflex evoked by i.v. 5-HT in the anaesthetized rat, antagonism. It is filed as in vivo, rat (male Sprague-Dawley). To be noted: for ED50 / minimal effective dose: iv; for ED50: read-out: ED50 (inhibits the response to 5-HT by 50%); for minimal effective dose: read-out: threshold dose (just inhibits the response to 5-HT); for potency relative to metoclopramide: Von Bezold-Jarisch reflex, comparative test. The text has this: The activity of these compounds against 5-HT can be assessed in vivo by measurement of the effect of the compound on the Von Bezold-Jarisch Reflex induced by 5-HT injected intravenously into the rat (A.S. Paintal, Physiol. Rev. 53, 159-227, 1973). The transient cardiac slowing arises from an increased […] vagus activity arising from stimulation by 5-HT of sensory afferent fibres in and around the heart (see Example 3).
Antagonism of the Von Bezold-Jarisch reflex evoked by 5-HT in the anaesthetized rat was measured for tropyl 3,5-dimethoxybenzoate (A), tropyl 3,5-dimethylbenzoate (B) and tropyl 3,5-dichlorobenzoate (C) using the following method.
Male Sprague-Dawley rats weighing 250-300 g are anaesthetized with urethane, 1.25 g/kg injected intraperitoneally and set up for recording blood pressure and heart rate as described in J. R. Fozard et al, J. Cardiovas. Pharmacol. 2, 229-245 (1980). A submaximal dose of 5-HT ([…]) is given repeatedly into the cannulated jugular vein and changes in heart rate are quantified. Antagonists are given intravenously and the doses required to just inhibit the response to 5-HT (threshold dose) or to inhibit the response to 5-HT by 50% (ED50) are determined.

Another series concerns mouse and rat. The experiment in a line: Acute toxicity (LD50) in the mouse and rat, overall statement. It is filed as in vivo.
Series [2] has as its system guinea-pig ileum, acetylcholine. In words: Selectivity: inhibition of response to acetylcholine or carbachol, guinea-pig ileum. The format is biochemical. To be noted: read-out: concentration to inhibit standard response to stimulants by 50% (IC50). The text has this: (§1) A selection of classical in vitro pharmacological test preparations (rat uterus, rat fundus, guinea-pig ileum, guinea-pig taenia caeci) were set up according to well-established procedures (see "Pharmacological Experiments on Isolated Preparations" Staff of the Department of Pharmacology, University of Edinburgh, Livingstone, Edinburgh 1970). Various spasmogens were used to elicit contraction of these tissues though mechanisms other than the 5-HT "M" receptor. The concentrations of tropyl 3,5-dimethoxybenzoate (A), tropyl 3,5-dimethylbenzoate (B) and tropyl 3,5-dichlorobenzoate (C) which reduced the effects of a submaximal dose of agonist by 50% were determined (IC50). The results are set forth in Table VI below in which the compounds are identified by the reference letters used above.
**Carbachol agonist instead of acetylcholine

In another series the test system is rat uterus, 5-HT. In words: Selectivity: inhibition of response to 5-HT, rat uterus. The format is biochemical. To be noted: agonist 5-HT, read-out: concentration to inhibit standard response to stimulants by 50% (IC50).
Source text: as §1

For series [3], the system named is rat fundus, acetylcholine. The experiment in a line: Selectivity: inhibition of response to acetylcholine, rat fundus. The format is biochemical. To be noted: agonist acetylcholine, read-out: concentration to inhibit standard response to stimulants by 50% (IC50).
Source text: as §1

A further series has as its system rat fundus, 5-HT. In words: Selectivity: inhibition of response to 5-HT, rat fundus. To be noted: agonist 5-HT, read-out: concentration to inhibit standard response to stimulants by 50% (IC50). It is filed as biochemical.
Source text: as §1

In another series the test system is rat uterus, oxytocin. In words: Selectivity: inhibition of response to oxytocin, rat uterus. The format is biochemical. The following applies: agonist oxytocin, read-out: concentration to inhibit standard response to stimulants by 50% (IC50).
Source text: as §1

In series [4] the test system is guinea-pig ileum, histamine. In words: Selectivity: inhibition of response to histamine, guinea-pig ileum. It is filed as biochemical. The following applies: agonist histamine, read-out: concentration to inhibit standard response to stimulants by 50% (IC50).
Source text: as §1

For series [5], the system named is guinea-pig taenia caeci, calcium. The experiment in a line: Selectivity: inhibition of response to calcium, guinea-pig taenia caeci. The format is biochemical. To be noted: agonist calcium, guinea-pig taenia caeci in potassium depolarized Tyrode solution; read-out: concentration to inhibit standard response to stimulants by 50% (IC50).
Source text: as §1
*In potassiumdepolarized Tyrode solution

Series [6] concerns patients with migraine or cluster headaches. In words: Pilot study of tolerance and efficacy, intravenous, in patients with migraine or cluster headaches. The format is in vivo, human (patients). The following applies: for headache response: Patient No. 6. The protocol:
This study was designed to evaluate tolerance and, if possible, efficacy of intravenous tropyl 3,5-dichlorobenzoate in patients with migraine or cluster headaches.
Eight patients (4 males), aged 27-47 with known headache disorders of 5-27 years duration (see Table VII) took part in the study but Patients Nos. 2 and 4 had cluster not migraine headaches and the cause of headaches in Patient No. 6 was unknown.
Tropyl 3,5-dichlorobenzoate was provided as a sterile solution, 1 mg/ml; the desired dose to be diluted in 10 ml normal saline for intravenous infusion over a 2 minute period. No other therapy was taken for at least 24 hours before treatment or during the course of therapy.
Doses as high as 14 mg/day and 9 mg single dose were administered without any signs of intolerance.

In the next series the test system is acute migraine attack. The following applies: slow intravenous injection, 10 mg; J. B. Hughes 1977; cited from earlier work.
The mark [7] stands for this setting: Patient 6, after 4 mg dose i.v.

For `COc1cc(OC)cc(C(=O)OC2CC3CCC(C2)N3C)c1` (stereo not shown) [A, tropyl 3,5-dimethoxybenzoate], in [1] (Rattus norvegicus), the ED50 is 13.7 ± 1.2 µg/kg. Moreover, the minimal effective dose in series [1] (Rattus norvegicus) stood at 6.96 ± 0.9 µg/kg. Further, the “potency relative to metoclopramide” value in series [1] is “many times more potent than metoclopramide”. For the same compound, the “toxicity as shown by LD50 values” with mouse and rat is listed as “relatively non-toxic”. For the same compound, the IC50 is 9.56 µM in series [2] (agonist acetylcholine); greater than 52.5 µM in the series on rat uterus, 5-HT; 13.1 µM in series [3]; 40 µM in the series with rat fundus, 5-HT; greater than 52.5 µM in the series on rat uterus, oxytocin; 6.61 µM in [4]. Moreover, the IC50 in [5] was determined as 36.1 µM.

`Cc1cc(C)cc(C(=O)OC2CC3CCC(C2)N3C)c1` (stereo not shown) [B, tropyl 3,5-dimethylbenzoate]: in series [1] (Rattus norvegicus), the median effective dose (ED50) came to 6.07 ± 0.72 µg/kg and the minimal effective dose is 3.57 ± 0.33 µg/kg. In series [1], the “potency relative to metoclopramide” value is listed as “many times more potent than metoclopramide”. In addition, the “toxicity as shown by LD50 values” in the series with mouse and rat is reported as “relatively non-toxic”. Besides, the IC50 in series [2] (carbachol agonist instead of acetylcholine) was 9.59 µM. The IC50 in series [5] was 34.2 µM.

Consider `CN1C2CCC1CC(OC(=O)c1cc(Cl)cc(Cl)c1)C2` (stereo not shown) [C, tropyl 3,5-dichlorobenzoate], for which the ED50 in series [1] (Rattus norvegicus) amounted to 22 ± 3.2 µg/kg. For the same compound, the minimal effective dose in series [1] (Rattus norvegicus) amounted to 7.72 ± 0.63 µg/kg. The “potency relative to metoclopramide” value in series [1] is given as “many times more potent than metoclopramide”. In addition, the “toxicity as shown by LD50 values” in the series on mouse and rat is “relatively non-toxic”. For the same compound, the IC50 in series [2] (agonist acetylcholine) is 8.05 µM; in the series on rat uterus, 5-HT, 25.4 µM; in series [3], 12.4 µM; in the series with rat fundus, 5-HT, greater than 50.9 µM; with rat uterus, oxytocin it was greater than 50.9 µM; in series [4], 3.68 µM. Further, the IC50 in series [5] turned out to be 28.6 µM. The response entry in series [6] (Patient 1, i.v. 1 mg, then 1 hour later, 2 mg) is on record as “no effect on headache or nausea”; in series [6] (Patient 2 (cluster), i.v. 1 mg), “no effect”; in series [6] (Patient 4 (cluster), i.v. 3 mg), “no effect”; in series [6] (Patient 7, i.v. 3 mg × 1 day, then 5 mg × 2 days, then 7 mg × 1 day), “no effect”. The “effect of increased doses” value in series [6] (Patient 6, 5 mg bid × 2 days, then 6 mg bid × 11 days i.v.) is “no greater effect”. In addition, the “duration of reduction of pain intensity” value in series [6] (setting [7]) was in the range of 4 to 8 h. In addition, in series [6] (setting [7]), the “time to reduction of pain intensity” value was no more than 30 min. Further, in series [6] (Patient 6, within 30 minutes after 4 mg dose i.v.), the “reduction of pain intensity” value was 70-80%. The “response during increasing doses” value in [6] (Patient 8, i.v. 6 mg × 1 day, 7 mg × 2 days, 9 mg × 1 day) is listed as “maintained during increasing doses”. In series [6] (Patient 8, with 3 mg i.v.), the reduction of pain result is reported as “about 30%”. Besides, the headache response result in series [6] (3 mg single doses i.v.) was “slight reduction in their bilateral headache”; in [6] (4 mg bid i.v.), “further amelioration”. For the same compound, in [6] (Patient No. 8), the “time after stopping therapy to return of headaches to pretreatment intensity” value was in the range of 6 to 7 days. In addition, the symptom response entry in [6] (Patient No. 8, first dose of 3 mg i.v.) is “decrease in all symptoms”. The “repeated dose well tolerated (highest)” value in [6] (i.v. b.i.d., patients with headaches) was “up to 7 mg”. For the same compound, in series [6] (i.v., over 18 days), the “cumulative dose well tolerated (highest)” value came out at 177 mg. Further, the “dose per day administered without any signs of intolerance (highest)” value in [6] (i.v., patients) was found to be 14 mg/day. In addition, in series [6] (patients treated with repeated doses (Patients Nos. 6 and 8), i.v.), the “patients with marked diminution of headache and associated symptoms” value is listed as “two of the three patients”. Besides, in series [6] (some patients treated with doses of 3 mg or greater, i.v.), the “pain intensity and associated symptoms” value is listed as “ameliorated”.

Take `CCN(CC)CCNC(=O)c1cc(Cl)c(N)cc1OC` [metoclopramide, reference compound]: the minimal effective dose in series [1] (antagonist i.v., anaesthetized rat) worked out at 233 ± 66.3 µg/kg. Besides, in the series with acute migraine attack, the “relief of acute migraine attack” value was “immediate relief of acute migraine attack”.
